Experimental data reported in publication PMC11582101, “Unlocking the potential: unveiling tyrphostins with Michael-reactive cyanoacrylate motif as promising inhibitors of human 5-lipoxygenase” (Pflugers Archiv, 2024).
“And” between values parts separate entries of the source, which are not always exact repeats. Equal values may be shown once.

Legend:
[1] = biological target: T1, r5-LO_WT (Homo sapiens, UniProt P09917); assay: Covalent inhibitor binding by mass spectrometry, r5-LO_WT; conditions: 20 µM protein, 100 µM compound, at least 1 h RT
T1 construct: made in house; host or cells: E. coli BL21 (DE3)
T1 sequence (P09917 1-674): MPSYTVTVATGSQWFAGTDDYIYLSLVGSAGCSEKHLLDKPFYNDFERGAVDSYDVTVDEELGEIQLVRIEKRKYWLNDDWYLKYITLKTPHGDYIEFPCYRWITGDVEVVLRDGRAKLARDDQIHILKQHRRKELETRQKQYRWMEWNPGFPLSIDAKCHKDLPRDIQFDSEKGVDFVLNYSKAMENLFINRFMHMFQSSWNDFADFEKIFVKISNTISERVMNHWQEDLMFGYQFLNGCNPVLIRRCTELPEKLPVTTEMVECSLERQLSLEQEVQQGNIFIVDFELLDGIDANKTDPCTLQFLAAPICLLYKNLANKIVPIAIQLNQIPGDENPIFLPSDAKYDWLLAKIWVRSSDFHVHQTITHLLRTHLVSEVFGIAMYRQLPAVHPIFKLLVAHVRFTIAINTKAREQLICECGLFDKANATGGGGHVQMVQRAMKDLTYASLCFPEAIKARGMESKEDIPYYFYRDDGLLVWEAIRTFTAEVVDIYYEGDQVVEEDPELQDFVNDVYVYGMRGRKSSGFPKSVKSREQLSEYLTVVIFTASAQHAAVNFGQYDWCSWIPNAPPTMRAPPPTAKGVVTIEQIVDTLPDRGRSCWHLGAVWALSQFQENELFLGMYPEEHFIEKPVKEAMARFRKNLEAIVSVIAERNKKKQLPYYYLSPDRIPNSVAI

[2] = biological target: T2, 12-LO (Homo sapiens, UniProt P18054); assay: 12-HETE formation in platelets; conditions: 20 µM AA, 2.5 µM A23187, n = 3–6
T2 sequence (P18054 1-663): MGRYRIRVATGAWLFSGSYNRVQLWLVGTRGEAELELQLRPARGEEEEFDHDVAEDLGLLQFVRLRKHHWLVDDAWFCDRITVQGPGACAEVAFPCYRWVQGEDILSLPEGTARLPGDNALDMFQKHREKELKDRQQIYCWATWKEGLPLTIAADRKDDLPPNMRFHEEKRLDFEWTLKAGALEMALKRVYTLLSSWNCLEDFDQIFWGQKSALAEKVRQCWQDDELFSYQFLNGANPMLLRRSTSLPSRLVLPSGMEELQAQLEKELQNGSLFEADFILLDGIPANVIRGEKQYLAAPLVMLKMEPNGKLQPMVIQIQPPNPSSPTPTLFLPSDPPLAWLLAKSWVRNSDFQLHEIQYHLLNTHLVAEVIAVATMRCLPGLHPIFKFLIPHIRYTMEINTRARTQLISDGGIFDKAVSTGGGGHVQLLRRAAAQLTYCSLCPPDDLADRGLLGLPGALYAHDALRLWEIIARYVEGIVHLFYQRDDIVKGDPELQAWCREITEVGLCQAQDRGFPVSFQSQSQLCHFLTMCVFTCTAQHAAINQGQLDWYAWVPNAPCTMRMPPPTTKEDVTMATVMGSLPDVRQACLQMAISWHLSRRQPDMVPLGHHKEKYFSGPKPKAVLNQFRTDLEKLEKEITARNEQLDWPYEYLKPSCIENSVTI

[3] = tested on: Her2/ErbB2; design: method as in PMID 7892601; conditions: original target of AG879; cited from earlier work
[4] = tested on: 15-LO; assay: 15-HETE formation in intact PMNL; conditions: read-out: IC50 for inhibition of 15-HETE formation, PMNL; intact PMNL, 20 µM AA, 2.5 µM A23187; (95% CI), n = 3–6
[5] = tested on: U2OS cells; conditions: human, 10 µM
[6] = biological target: T3, 5-LO (Homo sapiens, UniProt P09917); assay: 5-LO product formation in intact PMNL; conditions: IC50 for inhibition of 5-LO product formation, PMNL, intact PMNL, 20 µM AA, 2.5 µM A23187; (95% CI), n = 3–6
T3 sequence (P09917 1-674): T1 sequence (P09917 1-674)

inhibitor adducts to r5-LO_WT detected by mass spectrometry [1]: did not detect mass shifts | IC50 for inhibition of 12-HETE formation, platelets [2]: no inhibition | IC50 [4]: > 25000 nM | normalized healthy cell count [5]: around 75% | IC50 [6]: 400 nM and 420 nM
SMILES: CC(C)(C)c1cc(/C=C(\C#N)C(N)=S)cc(C(C)(C)C)c1O [AG879]
IC50 [3]: 1000 nM
